The test addresses T1, GPR40 (Homo sapiens, UniProt O14842).
T1 construct: expressed in transfected cells; host or cells: HEK293 cells stably expressing GPR40 (Hygromycin selection)
Nature of the test: IP1 accumulation assay in HEK293 cells stably expressing GPR40. Type of test: cell-based. As to the method: IP1 accumulation assay was used to evaluate the potency of compounds. HEK293 cells stably expressing GPR40 were cultured in 5% CO2 incubator (ThermoFisher) in maintenance media (Dulbecco's modified Eagle's medium with 4.5 g/L of glucose, 10% fetal bovine serum, 100 μg/mL Hygromycin, and Penicillin (100 U/mL)/Streptomycin (100 μg/mL)) till 100% confluency. Cells were harvested freshly, spun down at 300×g for 5 min, and resuspended in pre-warmed 1× stimulant buffer from Cisbio IP-One HTRF Detection kit (Cisbio). Cell density was adjusted to 2.0×10^6 cells/mL. DMSO was used as blank control and AMG-1638 (CAS #: 1142214-62-7) as positive control. Compounds were prepared at 10 mM in DMSO and 5 nL of 3× serially diluted compounds (10 concentrations) were added to each well of the 384-LDV assay plate (Corning) by using ECHO 550 (Labcyte). Five μL of cells in suspension were transferred into each well by using Multidrop Combi Reagent Dispenser (ThermoFisher). Assay plate was then sealed and incubated at 37° C. for 2 hours. IP-d2 reagent and anti-IP1 reagent were prepared following the manual (Cisbio). Five μL of IP1-d2 and then 5 μL of anti-IP1 antibody was added to each well sequentially. Assay plate was incubated at room temperature for 60 min and then read at 665 nm/615 nm on an Envision plate reader (PerkinElmer). The ratio of values obtained at 665 nm and 615 nm was used for calculation of IP1 accumulation: % Effect=(Ratiosample−Ratioblank)/(RatioAMG-1638−Ratioblank)×100. Dose curve was fitted and EC50 of each compound was calculated by using XLFit.

Setting [1] is: IP1 accumulation, HEK293 cells stably expressing GPR40, 2 hours at 37° C., % effect relative to AMG-1638, table of Biological Example 1.
The mark [2] stands for this setting: Table A-8 (additional examples), obtained by methods of Biological Example 1.
Where [3] appears, read: Tables A-1a to A-7b (structure-property relationship), obtained by methods of Biological Example 1.

The structures appear in SMILES notation.

T1 sequence (O14842 whole entry): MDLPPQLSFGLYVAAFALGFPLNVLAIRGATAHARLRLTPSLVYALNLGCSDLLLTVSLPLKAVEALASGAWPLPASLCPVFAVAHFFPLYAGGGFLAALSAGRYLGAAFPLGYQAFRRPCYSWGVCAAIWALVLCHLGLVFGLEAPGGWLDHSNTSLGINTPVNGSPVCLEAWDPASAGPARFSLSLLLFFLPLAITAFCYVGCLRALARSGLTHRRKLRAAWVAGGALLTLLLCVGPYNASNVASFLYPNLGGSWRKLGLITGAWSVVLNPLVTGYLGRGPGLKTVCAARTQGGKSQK

Turning to `C[C@H](C(=O)O)[C@H](c1ccc2c(c1)O[C@@H](C1CCN(Cc3cc(-n4cc(CCCCCCCCCCCCC(=O)NCCN(CCC(=O)NCCN)CCC(=O)NCCN)nn4)ccc3OC(F)(F)F)CC1)CC2)C1CC1` [Example 1, (2S,3R)-3-((R)-2-(1-(5-(4-(13-((2-(bis(3-((2-aminoethyl)amino)-3-oxopropyl)amino)ethyl)amino)-13-oxotridecyl)-1H-1,2,3-triazol-1-yl)-2-(trifluoromethoxy)benzyl)piperidin-4-yl)chroman-7-yl)-3-cyclopropyl-2-methylpropanoic acid], the EC50 runs as follows: under setting [1], 5.46 nM; under setting [2], 5.46 nM; under setting [3], 5.46 nM. For `C[C@H](C(=O)O)[C@H](c1ccc2c(c1)O[C@@H](C1CCN(Cc3cc(-n4cc(CCCCCCCCCCCCC(=O)NCC[N+](C)(CCC(=O)NCCN)CCC(=O)NCCN)nn4)ccc3OC(F)(F)F)CC1)CC2)C1CC1` [Example 2], the concentration giving a half-maximal response (EC50) runs as follows: under setting [1], 9.46 nM; under setting [2], 9.46 nM; under setting [3], 9.46 nM. Regarding `C[C@H](C(=O)O)[C@H](c1ccc2c(c1)O[C@@H](C1CCN(Cc3cc(-n4cc(CCCCCCCCCCCCCCCCCC(=O)NCCN(CCC(=O)NCCN)CCC(=O)NCCN)nn4)ccc3OC(F)(F)F)CC1)CC2)C1CC1` [Example 3], the EC50 was 1.1 nM under setting [1] and 1.1 nM under setting [3].

In the case of `C[C@H](C(=O)O)[C@H](c1ccc2c(c1)O[C@@H](C1CCN(Cc3cc(-n4cc(CCCCCCCCCCCCCCCCCC(=O)NCC[N+](C)(CCC(=O)NCCN)CCC(=O)NCCN)nn4)ccc3OC(F)(F)F)CC1)CC2)C1CC1` [Example 4], the concentration giving a half-maximal response (EC50) under setting [1] came out at 0.31 nM and a half-maximal response under setting [3] (EC50) required 0.31 nM. For the compound `C[C@H](C(=O)O)[C@H](c1ccc2c(c1)O[C@@H](C1CCN(Cc3cc(-c4cn(CCCCCCCCCCCCCC(=O)NCCN(CCC(=O)NCCN)CCC(=O)NCCN)nn4)ccc3OC(F)(F)F)CC1)CC2)C1CC1` [Example 5], the 50% effective concentration (EC50) worked out at 15.2 nM under setting [1] and 15.2 nM under setting [3]. Take `C[C@H](C(=O)O)[C@H](c1ccc2c(c1)O[C@@H](C1CCN(Cc3cc(-c4cn(CCCCCCCCCCCCCCCCCC(=O)NCCN(CCC(=O)NCCN)CCC(=O)NCCN)nn4)ccc3OC(F)(F)F)CC1)CC2)C1CC1` [Example 6]: the half-maximal effective concentration (EC50) under setting [1] worked out at 1.21 nM and the EC50 under setting [3] worked out at 1.21 nM. On to `C[C@H](C(=O)O)[C@H](c1ccc2c(c1)O[C@@H](C1CCN(Cc3cc(-c4cn(CCCCCCCCCCCCCCCCCC(=O)NCC[N+](C)(CCC(=O)NCCN)CCC(=O)NCCN)nn4)ccc3OC(F)(F)F)CC1)CC2)C1CC1` [Example 7], for which the EC50 was 0.65 nM under setting [1] and 0.65 nM under setting [3]. In turn, `COc1ccc(F)c(-c2ccc(COc3cccc([C@@H](CC(=O)O)C4CC4)c3)cc2C(C)(C)c2cn(CCCCCCCCCCCCCC(=O)NCCN(CCC(=O)NCCN)CCC(=O)NCCN)nn2)c1` [Example 8] yielded an EC50 under setting [1] of more than 1000 nM. Regarding `COc1ccc(F)c(-c2ccc(COc3cccc([C@@H](CC(=O)O)C4CC4)c3)cc2C(C)(C)c2cn(CCCCCCCCCCCCCC(=O)NCC[N+](C)(CCC(=O)NCCN)CCC(=O)NCCN)nn2)c1` [Example 9], the concentration for a half-maximal effect (EC50) under setting [1] came to 640 nM. With `COc1ccc(F)c(-c2ccc(COc3cccc([C@@H](CC(=O)O)C4CC4)c3)cc2C(C)(C)c2cn(CCCCCCCCCCCCCCCCCC(=O)NCCN(CCC(=O)NCCN)CCC(=O)NCCN)nn2)c1` [Example 10], under setting [1], the EC50 was 32.7 nM. On the same count and under the same terms, then `COc1ccc(F)c(-c2ccc(COc3cccc([C@@H](CC(=O)O)C4CC4)c3)cc2C(C)(C)c2cn(CCCCCCCCCCCCCCCCCC(=O)NCC[N+](C)(CCC(=O)NCCN)CCC(=O)NCCN)nn2)c1` [Example 11], with 20.3 nM; and `COc1ccc(F)c(-c2ccc(COc3cccc([C@@H](CC(=O)O)C4CC4)c3)cc2C(OCCCCCn2cc(CCCCCCCCCCCCCCCCCC(=O)NCCN(CCC(=O)NCCN)CCC(=O)NCCN)nn2)C(C)(C)C)c1` (some centres unmarked) [Example 12], with 1.12 nM. `COc1ccc(F)c(-c2ccc(COc3cccc([C@@H](CC(=O)O)C4CC4)c3)cc2C(OC)C(C)(C)Cn2cc(CCCCCCCCCCCCCCCCCC(=O)NCCN(CCC(=O)NCCN)CCC(=O)NCCN)nn2)c1` (some centres unmarked) [Example 14] registered an EC50 under setting [1] of 8.8 nM. `COc1ccc(F)c(-c2ccc(COc3cccc([C@@H](CC(=O)O)C4CC4)c3)cc2C(OC)C(C)(C)Cn2cc(CCCCCCCCCCCCCCCCCC(=O)NCC[N+](C)(CCC(=O)NCCN)CCC(=O)NCCN)nn2)c1` (some centres unmarked) [Example 15] had an EC50 under setting [1] of 58.4 nM. Regarding `COc1ccc(F)c(-c2ccc(COc3cccc([C@@H](CC(=O)O)C4CC4)c3)cc2CC(C)(C)Cn2cc(CCCCCCCCCCCCC(=O)NCCN(CCC(=O)NCCN)CCC(=O)NCCN)nn2)c1` [Example 16], the EC50 under setting [1] was determined as 460 nM; the EC50 under setting [2] amounted to 706 nM; the midpoint of the response under setting [3], the EC50, lay at 460 nM.

In the case of `COc1ccc(F)c(-c2ccc(COc3cccc([C@@H](CC(=O)O)C4CC4)c3)cc2CC(C)(C)Cn2cc(CCCCCCCCCCCCC(=O)NCC[N+](C)(CCC(=O)NCCN)CCC(=O)NCCN)nn2)c1` [Example 17], the EC50 runs as follows: under setting [1], 152 nM; under setting [2], 169 nM; under setting [3], 152 nM. In turn, `COc1ccc(F)c(-c2ccc(COc3cccc([C@@H](CC(=O)O)C4CC4)c3)cc2CC(C)(C)Cn2cc(CCCCCCCCCCCCCCCCCC(=O)NCCN(CCC(=O)NCCN)CCC(=O)NCCN)nn2)c1` [Example 18] came in with an EC50 under setting [1] of 2.25 nM and a 50% effective concentration (EC50) under setting [3] of 2.25 nM. With `COc1ccc(F)c(-c2ccc(COc3cccc([C@@H](CC(=O)O)C4CC4)c3)cc2CC(C)(C)Cn2cc(CCCCCCCCCCCCCCCCCC(=O)NCC[N+](C)(CCC(=O)NCCN)CCC(=O)NCCN)nn2)c1` [Example 19], the EC50 under setting [1] is 1.66 nM and the EC50 under setting [3] was found to be 1.66 nM. Take `COc1ccc(F)c(-c2ccc(COc3cccc([C@@H](CC(=O)O)C4CC4)c3)cc2CC(C)(C)Cc2cn(CCCCCCCCCCCCCC(=O)NCCN(CCC(=O)NCCN)CCC(=O)NCCN)nn2)c1` [Example 21]: the 50% effective concentration (EC50) runs as follows: under setting [1], 49.4 nM; under setting [3], 49 nM. The corresponding values for `COc1ccc(F)c(-c2ccc(COc3cccc([C@@H](CC(=O)O)C4CC4)c3)cc2CC(C)(C)Cc2cn(CCCCCCCCCCCCCC(=O)NCC[N+](C)(CCC(=O)NCCN)CCC(=O)NCCN)nn2)c1` [Example 22] are 49 nM and 49 nM. Regarding `COc1ccc(F)c(-c2ccc(COc3cccc([C@@H](CC(=O)O)C4CC4)c3)cc2CC(C)(C)Cc2cn(CCCCCCCCCCCCCCCCCC(=O)NCCN(CCC(=O)NCCN)CCC(=O)NCCN)nn2)c1` [Example 23], the EC50 by setting is: under setting [1], 0.96 nM; under setting [3], 0.96 nM.

With `COc1ccc(F)c(-c2ccc(COc3cccc([C@@H](CC(=O)O)C4CC4)c3)cc2CC(C)(C)Cc2cn(CCCCCCCCCCCCCCCCCC(=O)NCC[N+](C)(CCC(=O)NCCN)CCC(=O)NCCN)nn2)c1` [Example 24], the half-maximal effective concentration (EC50) runs as follows: under setting [1], 2.04 nM; under setting [3], 2.04 nM. For `COc1ccc(F)c(-c2ccc(COc3cccc([C@@H](CC(=O)O)C4CC4)c3)cc2OC(C)(C)COCc2cn(CCCCCCCCCCCCCC(=O)NCCN(CCC(=O)NCCN)CCC(=O)NCCN)nn2)c1` [Example 25], the 50% effective concentration (EC50) under setting [1] was 132 nM. The compound `COc1ccc(F)c(-c2ccc(COc3cccc([C@@H](CC(=O)O)C4CC4)c3)cc2OC(C)(C)COCc2cn(CCCCCCCCCCCCCC(=O)NCC[N+](C)(CCC(=O)NCCN)CCC(=O)NCCN)nn2)c1` [Example 26] registered an EC50 under setting [1] of 75.8 nM. For the compound `COc1ccc(F)c(-c2ccc(COc3cccc([C@@H](CC(=O)O)C4CC4)c3)cc2OC(C)(C)COCc2cn(CCCCCCCCCCCCCCCCCC(=O)NCCN(CCC(=O)NCCN)CCC(=O)NCCN)nn2)c1` [Example 27], it took 5.32 nM to reach a half-maximal effect under setting [1] (EC50).

What is called EC50 is the concentration at which the effect is half-maximal. A lower EC50 goes with an effect from little substance.

The values are drawn from patent publication US20250223281A1, “ANTIDIABETIC COMPOUNDS AND COMPOSITIONS” (REZUBIO PHARMACEUTICALS CO., LTD, priority 2022, published 2025).
